Source: US9428469B2, “Antiviral compounds” (priority 2013, dated 2016)
Where a name gives a salt, the structure may show the parent alone.

What was measured:
HCVpp GT-1b = assay: microbe, parasite or virus in culture; assay type: cell-based, Hepatitis C virus (GT1b Con1 strain); details: Hepatitis C virus, GT1B, 72 h, read-out: HCVpp GT-1b (EC50, μM)
VSVpp = assay: microbe, parasite or virus in culture; assay type: cell-based; details: Vesicular stomatitis virus, 72 h, read-out: VSVpp (EC50, μM)

Compound	EC50 (HCVpp GT-1b) [µM]	EC50 (VSVpp) [µM]
O=C(O)c1ccccc1CNc1nc(Nc2cc(Cl)cc(Cl)c2)n[nH]1 [Compound 14, 2-((3-(3,5-dichlorophenylamino)-1H-1,2,4-triazol-5-ylamino)methyl)benzoic acid; trifluoroacetic acid salt]	96	100
CC(C)S(=O)(=O)c1ccc(-c2c(Cl)cc(Nc3n[nH]c(NCc4ccc(C(=O)OC(C)(C)C)cc4)n3)cc2C(F)(F)F)cc1 [Compound 24, tert-butyl 4-((3-(2-chloro-4′-(isopropylsulfonyl)-6-(trifluoromethyl)biphenyl-4-ylamino)-1H-1,2,4-triazol-5-ylamino)methyl)benzoate]	0.014	6.2
FC(F)(F)c1ccc(Cl)cc1CNc1nc(Nc2cc(Cl)cc(Cl)c2)n[nH]1 [Compound 4, N5-(5-chloro-2-(trifluoromethyl)benzyl)-N3-(3,5-dichlorophenyl)-1H-1,2,4-triazole-3,5-diamine]	4.66	13.2
FC(F)(F)c1ccc(CNc2nc(Nc3cc(Cl)cc(Cl)c3)n[nH]2)cc1Cl [Compound 19, N5-(3-chloro-4-(trifluoromethyl)benzyl)-N3-(3,5-dichlorophenyl)-1H-1,2,4-triazole-3,5-diamine]	4.83	10
N#Cc1ccc(CNc2nc(Nc3cc(Cl)cc(Cl)c3)n[nH]2)cc1 [Compound 16, 4-((3-(3,5-dichlorophenylamino)-1H-1,2,4-triazol-5-ylamino)methyl)benzonitrile]	3.34	10
CC(C)(C)OC(=O)c1ccccc1CNc1nc(Nc2cc(Cl)cc(Cl)c2)n[nH]1 [Compound 8, tert-butyl 2-((3-(3,5-dichlorophenylamino)-1H-1,2,4-triazol-5-ylamino)methyl)benzoate]	9.99	22
Clc1ccc(CNc2nc(Nc3cc(Cl)cc(Cl)c3)n[nH]2)nc1 [Compound 5, N5-((5-chloropyridin-2-yl)methyl)-N3-(3,5-dichlorophenyl)-1H-1,2,4-triazole-3,5-diamine]	1.57	33.6
Clc1cc(Cl)cc(Nc2n[nH]c(NCc3ccccc3)n2)c1 [Compound 9, N5-benzyl-N3-(3,5-dichlorophenyl)-1H-1,2,4-triazole-3,5-diamine]	1.72	22.8
CN(C)S(=O)(=O)c1ccc(CNc2nc(Nc3cc(Cl)cc(Cl)c3)n[nH]2)cc1 [Compound 17, 4-((3-(3,5-dichlorophenylamino)-1H-1,2,4-triazol-5-ylamino)methyl)-N,N-dimethylbenzenesulfonamide]	10	10
Nc1ccc(CNc2nc(Nc3cc(Cl)cc(Cl)c3)n[nH]2)cn1 [Compound 10, N5-((6-aminopyridin-3-yl)methyl)-N3-(3,5-dichlorophenyl)-1H-1,2,4-triazole-3,5-diamine]	58.3	100
Cc1ccc(CNc2nc(Nc3cc(Cl)cc(Cl)c3)n[nH]2)o1 [Compound 3, N3-(3,5-dichlorophenyl)-N5-((5-methylfuran-2-yl)methyl)-1H-1,2,4-triazole-3,5-diamine]	3.27	19.3
O=S(=O)(c1ccc(CNc2nc(Nc3cc(Cl)cc(Cl)c3)n[nH]2)cc1)N1CCCC1 [Compound 20, N3-(3,5-dichlorophenyl)-N5-(4-(pyrrolidin-1-ylsulfonyl)benzyl)-1H-1,2,4-triazole-3,5-diamine]	10	10
FC(F)(F)c1ccc(CNc2nc(Nc3cc(Cl)c(Br)c(C(F)(F)F)c3)n[nH]2)cc1 [Compound 1, N3-(4-bromo-3-chloro-5-(trifluoromethyl)phenyl)-N5-(4-(trifluoromethyl)benzyl)-1H-1,2,4-triazole-3,5-diamine]	1.35	13.7
Clc1cc(Cl)cc(Nc2n[nH]c(NC3CCNCC3)n2)c1 [Compound 29, N*3*-(3,5-Dichloro-phenyl)-N*5*-piperidin-4-yl-1H-[1,2,4]triazole-3,5-diamine; compound with trifluoro-acetic acid]	10	10
CS(=O)(=O)N1CCC(Nc2nc(Nc3cc(Cl)cc(Cl)c3)n[nH]2)CC1 [Compound 27, N*3*-(3,5-Dichloro-phenyl)-N*5*-(1-methanesulfonyl-piperidin-4-yl)-1H-[1,2,4]triazole-3,5-diamine]	59.6	42.4
CC(C)(C)OC(=O)c1ccc(CNc2nc(Nc3cc(Cl)cc(Cl)c3)n[nH]2)cc1 [Compound 7, tert-butyl 4-((3-(3,5-dichlorophenylamino)-1H-1,2,4-triazol-5-ylamino)methyl)benzoate]	0.414	33.3
Cn1cc(CNc2nc(Nc3cc(Cl)cc(Cl)c3)n[nH]2)cn1 [Compound 11, N3-(3,5-dichlorophenyl)-N5-((1-methyl-1H-pyrazol-4-yl)methyl)-1H-1,2,4-triazole-3,5-diamine]	23.9	25.7
CC(C)(C)OC(=O)c1ccc(CNc2nc(Nc3cc(Cl)c(C#N)c(Cl)c3)n[nH]2)cc1 [Compound 23, tert-butyl 4-((3-(3,5-dichloro-4-cyanophenylamino)-1H-1,2,4-triazol-5-ylamino)methyl)benzoate]	0.029	10
CS(=O)(=O)c1ccc(CNc2nc(Nc3cc(Cl)cc(Cl)c3)n[nH]2)cc1 [Compound 15, N3-(3,5-dichlorophenyl)-N5-(4-(methylsulfonyl)benzyl)-1H-1,2,4-triazole-3,5-diamine]	10	10
O=S(=O)(c1ccc(CNc2nc(Nc3cc(Cl)cc(Cl)c3)n[nH]2)cc1)N1CCOCC1 [Compound 21, N3-(3,5-dichlorophenyl)-N5-(4-(morpholinosulfonyl)benzyl)-1H-1,2,4-triazole-3,5-diamine]	10	10
Clc1cc(Cl)cc(Nc2n[nH]c(NCc3cncnc3)n2)c1 [Compound 31, N*3*-(3,5-Dichloro-phenyl)-N*5*-pyrimidin-5-ylmethyl-1H-[1,2,4]triazole-3,5-diamine]	44.3	100
O=C(O)c1cccc(CNc2nc(Nc3cc(Cl)cc(Cl)c3)n[nH]2)c1 [Compound 13, 3-((3-(3,5-dichlorophenylamino)-1H-1,2,4-triazol-5-ylamino)methyl)benzoic acid; trifluoroacetic acid salt]	37.5	78.1
CC(C)(C)OC(=O)Nc1ccc(CNc2nc(Nc3cc(Cl)cc(Cl)c3)n[nH]2)cn1 [Compound 6, Tert-butyl 5-((3-(3,5-dichlorophenylamino)-1H-1,2,4-triazol-5-ylamino)methyl)pyridin-2-ylcarbamate]	7.81	14.5
N#Cc1c(Cl)cc(Nc2n[nH]c(NCc3ccc(C(F)(F)F)cc3)n2)cc1Cl [Compound 22, 2,6-dichloro-4-(5-(4-(trifluoromethyl)benzylamino)-1H-1,2,4-triazol-3-ylamino)benzonitrile]	0.224	5.3
CC(C)(C)OC(=O)N1CCC(Nc2nc(Nc3cc(Cl)cc(Cl)c3)n[nH]2)CC1 [Compound 28, 4-[5-(3,5-Dichloro-phenylamino)-2H-[1,2,4]triazol-3-ylamino]-piperidine-1-carboxylic acid tert-butyl ester]	6.57	11.1
FC(F)(F)c1ccc(CNc2nc(Nc3cc(Cl)cc(Cl)c3)n[nH]2)cc1 [Compound 25, N*3*-(3,5-Dichloro-phenyl)-N*5*-(4-trifluoromethyl-benzyl)-1H-[1,2,4]triazole-3,5-diamine]	0.046	29.1
FC(F)(F)c1cccc(CNc2nc(Nc3cc(Cl)cc(Cl)c3)n[nH]2)c1 [Compound 26, N*3*-(3,5-Dichloro-phenyl)-N*5*-(3-trifluoromethyl-benzyl)-1H-[1,2,4]triazole-3,5-diamine]	0.709	30.3
Clc1cc(Cl)cc(Nc2n[nH]c(NCc3ccco3)n2)c1 [Compound 2, N3-(3,5-dichlorophenyl)-N5-(furan-2-ylmethyl)-1H-1,2,4-triazole-3,5-diamine]	2.58	11.9
CC(=O)N1CCC(Nc2nc(Nc3cc(Cl)cc(Cl)c3)n[nH]2)CC1 [Compound 30, 1-{4-[5-(3,5-Dichloro-phenylamino)-2H-[1,2,4]triazol-3-ylamino]-piperidin-1-yl}-ethanone]	95.8	49.6
O=C(O)c1ccc(CNc2nc(Nc3cc(Cl)cc(Cl)c3)n[nH]2)cc1 [Compound 12, 4-((3-(3,5-dichlorophenylamino)-1H-1,2,4-triazol-5-ylamino)methyl)benzoic acid; trifluoroacetic acid salt]	19.5	100
